Reference: patent publication US4202968A, “New tunicamine derivatives and their preparation” (Meiji Seika Kaisha, Ltd., priority 1977, dated 1980)

Legend:
Eimeria tenella = test: Inhibitory activity against coccidiosis in chicks orally inoculated with Eimeria tenella oocysts; assay type: in vivo, chicks (domestic fowls) infected with Eimeria tenella; parameters: key to Presence of hemaferia: -: Not existing; ±: Something like hemaferia is likely to exist; +: A little hemaferia exists; ++: Distinct hemaferiae exist in places; +++: Distinct hemaferiae exist almost over the whole; ++++: The whole are hemaferiae
Description: Inhibitory activity of tunicamine derivative C against coccidiosis was tested in the following manner. Primary chicks newly-hatched out were raised with a standard assorted feed for chicks containing no tunicamine derivative C for the first 7 days and on and after the 8th day with the same feed as above but containing a 100 ppm or 200 ppm concentration of tunicamine derivative C. On the 8th day from the hatch the body weight of the chicks was taken and they were divided into test groups of five chicks per group so as to balance the weight distribution for respective groups. On the 9th day, each chick was orally inoculated with 5.0×10^4 matured oocysts of Eimeria tenella. Assessment was made by observation and determination of the presence of […] on the 4, 5, 6, 7 and 8 from day inoculation; percent of survivals on the 8th day and the extend of symptoms on the 8th day from the inoculation were then evaluated.

[1] = test system: Newcastle disease virus (NDV), influenza virus and tobacco-mosaic virus; details: cited from earlier work
[2] = test system: genera Bacillus, Candida, Microbacterium; details: cited from earlier work
[3] = 100 ppm in feed, 8th day from inoculation
[4] = 200 ppm in feed, 8th day from inoculation

Compound	Relative increase in body weight (Eimeria tenella; 100 ppm in feed) [%]	Presence of hemaferia (Eimeria tenella; 100 ppm in feed, 4th day from inoculation)	Presence of hemaferia (Eimeria tenella; 100 ppm in feed, 5th day from inoculation)	Presence of hemaferia (Eimeria tenella; 100 ppm in feed, 6th day from inoculation)	Presence of hemaferia (Eimeria tenella; 100 ppm in feed, 7th day from inoculation)	Percent of survivals (Eimeria tenella; [3]) [%]	Presence of hemaferia (Eimeria tenella; [3])	Relative increase in body weight (Eimeria tenella; 200 ppm in feed) [%]	Presence of hemaferia (Eimeria tenella; 200 ppm in feed, 4th day from inoculation)	Presence of hemaferia (Eimeria tenella; 200 ppm in feed, 5th day from inoculation)	Presence of hemaferia (Eimeria tenella; 200 ppm in feed, 6th day from inoculation)	Presence of hemaferia (Eimeria tenella; 200 ppm in feed, 7th day from inoculation)	Percent of survivals (Eimeria tenella; [4]) [%]	Presence of hemaferia (Eimeria tenella; [4])	antiviral activity [1]	antibacterial activity [2]
NC1C(O)OC(CC(O)C2OC(n3ccc(=O)[nH]c3=O)C(O)C2O)C(O)C1O (stereo not shown) [tunicamine derivative C]	96	-	-	±	±	100	+	102	-	-	-	-	100	-		
tunicamycin															high	high
